Assays:
[1] = octanol-water partition coefficient at pH 7.0; cited from earlier work
[2] = in vivo; settings: rabbit, topical, 0.25 % w/v
[3] = Slit lamp and fundus exams after topical ocular dosing in rabbits; settings: Example 1 formulation, topical twice-a-day to both eyes, treated eyes

## COc1cc2nccc(Oc3ccc(NC(=O)C4(C(=O)Nc5ccc(F)cc5)CC4)cc3)c2cc1OC [cabozantinib]
[1]
  Log P: 3.0
[2]; pigmented, plasma
  concentration at 5 day: < 12.5 ng/mL
[2]; posterior vitreous
  concentration at 5 day: 0.99 nM
[3]
  slit lamp and fundus exams: completely normal except for slight conjuctival follicle formation

From patent US10010610B2, “Compositions and methods for the treatment of intraocular neovascularization and/or leakage” (Retinal Therapies LLC, priority 2014, dated 2018)
